Assay results taken from ChEMBL document CHEMBL3627598, “Synthesis of novel compounds containing morpholine and 5(4H)-oxazolone rings as potent tyrosinase inhibitors” (Bioorg Med Chem, 2015).
pIC50: −log10 of the molar value.

What was measured:
[1] = Cytotoxicity against mouse B16F10 cells assessed as cell viability at 20 ug/ml incubated for 72 hrs by MTT assay; assay type: cell-based, B16-F10; conditions: read-out: Activity
[2] = biological target: T1, Tyrosinase (Mus musculus) (UniProt P11344); experiment: Inhibition of tyrosinase in mouse B16F10 cells assessed as reduction of melanin production at 20 ug/ml incubated for 72 hrs; assay type: cell-based; conditions: B16-F10
T1 sequence (whole entry): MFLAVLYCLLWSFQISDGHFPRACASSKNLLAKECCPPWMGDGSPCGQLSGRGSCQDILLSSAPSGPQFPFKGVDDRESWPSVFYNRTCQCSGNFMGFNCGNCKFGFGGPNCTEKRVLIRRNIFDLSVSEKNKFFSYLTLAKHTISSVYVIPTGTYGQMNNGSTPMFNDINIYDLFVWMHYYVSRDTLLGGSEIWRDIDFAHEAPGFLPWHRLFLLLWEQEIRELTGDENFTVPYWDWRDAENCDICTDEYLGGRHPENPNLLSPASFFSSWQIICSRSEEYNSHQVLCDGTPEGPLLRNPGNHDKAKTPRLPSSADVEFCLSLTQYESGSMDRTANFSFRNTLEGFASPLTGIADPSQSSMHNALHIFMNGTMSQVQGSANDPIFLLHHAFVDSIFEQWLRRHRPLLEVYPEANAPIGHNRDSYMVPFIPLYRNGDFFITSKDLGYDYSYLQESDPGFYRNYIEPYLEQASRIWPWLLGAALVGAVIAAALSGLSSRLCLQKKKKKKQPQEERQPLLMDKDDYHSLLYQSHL

Tyrosinase = biological target: T2, Tyrosinase (Agaricus bisporus, UniProt O42713); experiment: Inhibition of mushroom tyrosinase using L-DOPA as substrate assessed as formation of L-DOPA chrome preincubated for 10 mins followed by addition of substrate measured over 10 mins by […]
T2 sequence (O42713 whole entry): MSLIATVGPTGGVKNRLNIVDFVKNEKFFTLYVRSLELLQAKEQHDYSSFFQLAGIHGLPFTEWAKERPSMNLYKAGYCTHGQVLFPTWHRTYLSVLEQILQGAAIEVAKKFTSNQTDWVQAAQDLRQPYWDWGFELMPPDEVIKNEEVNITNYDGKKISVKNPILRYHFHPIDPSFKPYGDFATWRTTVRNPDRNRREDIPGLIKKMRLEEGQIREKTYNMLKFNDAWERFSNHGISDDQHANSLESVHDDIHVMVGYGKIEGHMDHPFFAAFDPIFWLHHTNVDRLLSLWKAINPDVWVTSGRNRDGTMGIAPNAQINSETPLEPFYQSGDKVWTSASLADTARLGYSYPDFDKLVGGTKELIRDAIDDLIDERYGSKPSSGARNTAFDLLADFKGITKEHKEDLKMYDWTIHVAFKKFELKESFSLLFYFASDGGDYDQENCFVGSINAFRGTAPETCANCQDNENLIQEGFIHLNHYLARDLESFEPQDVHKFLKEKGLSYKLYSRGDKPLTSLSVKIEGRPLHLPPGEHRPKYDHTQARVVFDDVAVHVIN

SMILES: O=C1OC(c2ccc(/N=N/c3ccc(N4CCOCC4)cc3)cc2)=N/C1=C/c1ccccc1[N+](=O)[O-]
- viability at 72 h, 20 ug/ml [1]: 58.1%
- inhibition [2]: 30.7%
- pIC50 (Tyrosinase): 4.69

SMILES: O=C1OC(c2ccc(/N=N/c3ccc(N4CCOCC4)cc3)cc2)=N/C1=C/c1ccccc1
- viability at 72 h, 20 ug/ml [1]: 62.9%
- inhibition [2]: 40.1%
- pIC50 (Tyrosinase): 4.76

SMILES: O=C1OC(c2ccc(/N=N/c3ccc(N4CCOCC4)cc3)cc2)=N/C1=C/c1ccc(F)cc1
- viability at 72 h, 20 ug/ml [1]: 57.2%
- inhibition [2]: 38.8%
- pIC50 (Tyrosinase): 4.80

SMILES: O=C1OC(c2ccc(/N=N/c3ccc(N4CCOCC4)cc3)cc2)=N/C1=C/c1cccs1
- viability at 72 h, 20 ug/ml [1]: 56.7%
- inhibition [2]: 31.2%
- pIC50 (Tyrosinase): 4.86

SMILES: O=C1OC(c2ccc(/N=N/c3ccc(N4CCOCC4)cc3)cc2)=N/C1=C/c1ccc(F)cc1Cl
- viability at 72 h, 20 ug/ml [1]: 60.7%
- inhibition [2]: 32.4%
- pIC50 (Tyrosinase): 4.80

SMILES: O=C1OC(c2ccc(/N=N/c3ccc(N4CCOCC4)cc3)cc2)=N/C1=C/c1ccc(Cl)cc1
- viability at 72 h, 20 ug/ml [1]: 61.9%
- inhibition [2]: 34.4%
- pIC50 (Tyrosinase): 4.72
